Test results published in the NIST ThermoML archive (doi:10.1016/j.tca.2006.08.007).

Assay: excess molar enthalpy (molar enthalpy of mixing); xn = mol fraction of the nth substance listed
Conditions: 101 kPa, Liquid, Isoperibol calorimetry

CCCCCCO [hexan-1-ol] + CC#N
Conditions | excess molar enthalpy [kcal/mol]
288.15 K, x1 = 0.0402 | 0.105
288.15 K, x1 = 0.0809 | 0.188
288.15 K, x1 = 0.1219 | 0.2555
288.15 K, x1 = 0.1629 | 0.3074
288.15 K, x1 = 0.2038 | 0.3499
288.15 K, x1 = 0.2445 | 0.386
288.15 K, x1 = 0.2846 | 0.4183
288.15 K, x1 = 0.3241 | 0.4434
288.15 K, x1 = 0.3628 | 0.4663
288.15 K, x1 = 0.4145 | 0.4969
288.15 K, x1 = 0.4465 | 0.5029
288.15 K, x1 = 0.4819 | 0.5
288.15 K, x1 = 0.5214 | 0.4912
288.15 K, x1 = 0.5657 | 0.4775
288.15 K, x1 = 0.6156 | 0.4565
288.15 K, x1 = 0.6722 | 0.425
288.15 K, x1 = 0.7368 | 0.3812
288.15 K, x1 = 0.8114 | 0.3083
288.15 K, x1 = 0.898 | 0.191
298.15 K, x1 = 0.0405 | 0.121
298.15 K, x1 = 0.0815 | 0.2278
298.15 K, x1 = 0.1226 | 0.3093
298.15 K, x1 = 0.1639 | 0.3812
298.15 K, x1 = 0.205 | 0.4328
298.15 K, x1 = 0.2457 | 0.4742
298.15 K, x1 = 0.286 | 0.5062
298.15 K, x1 = 0.3257 | 0.5239
298.15 K, x1 = 0.3849 | 0.5428
298.15 K, x1 = 0.4227 | 0.554
298.15 K, x1 = 0.4554 | 0.5566
298.15 K, x1 = 0.4916 | 0.5557
298.15 K, x1 = 0.5321 | 0.5492
298.15 K, x1 = 0.5774 | 0.5359
298.15 K, x1 = 0.6286 | 0.5057
298.15 K, x1 = 0.6866 | 0.4701
298.15 K, x1 = 0.753 | 0.4089
298.15 K, x1 = 0.8295 | 0.309
298.15 K, x1 = 0.9187 | 0.165
298.15 K, x1 = 0.958 | 0.0932
313.15 K, x1 = 0.0408 | 0.132
313.15 K, x1 = 0.0819 | 0.238
313.15 K, x1 = 0.1233 | 0.3184
313.15 K, x1 = 0.1648 | 0.3815
313.15 K, x1 = 0.206 | 0.4398
313.15 K, x1 = 0.247 | 0.4861
313.15 K, x1 = 0.2874 | 0.5151
313.15 K, x1 = 0.3271 | 0.5387
313.15 K, x1 = 0.3888 | 0.5705
313.15 K, x1 = 0.4178 | 0.5782
313.15 K, x1 = 0.4498 | 0.5834
313.15 K, x1 = 0.4853 | 0.5841
313.15 K, x1 = 0.5248 | 0.5772
313.15 K, x1 = 0.569 | 0.5595
313.15 K, x1 = 0.6188 | 0.5311
313.15 K, x1 = 0.6752 | 0.4883
313.15 K, x1 = 0.7395 | 0.435
313.15 K, x1 = 0.8134 | 0.3535
313.15 K, x1 = 0.8993 | 0.2239
323.15 K, x1 = 0.041 | 0.136
323.15 K, x1 = 0.0823 | 0.2452
323.15 K, x1 = 0.1239 | 0.3296
323.15 K, x1 = 0.1655 | 0.4001
323.15 K, x1 = 0.2069 | 0.4541
323.15 K, x1 = 0.2479 | 0.505
323.15 K, x1 = 0.2884 | 0.5461
323.15 K, x1 = 0.3282 | 0.575
323.15 K, x1 = 0.39 | 0.626
323.15 K, x1 = 0.419 | 0.6384
323.15 K, x1 = 0.451 | 0.6417
323.15 K, x1 = 0.4865 | 0.6353
323.15 K, x1 = 0.526 | 0.6231
323.15 K, x1 = 0.5702 | 0.6001
323.15 K, x1 = 0.6199 | 0.5698
323.15 K, x1 = 0.6762 | 0.5206
323.15 K, x1 = 0.7404 | 0.4529
323.15 K, x1 = 0.8142 | 0.3561
323.15 K, x1 = 0.8997 | 0.223

CCCCCO [pentan-1-ol] + CC#N
Conditions | excess molar enthalpy [kcal/mol]
288.15 K, x1 = 0.0461 | 0.107
288.15 K, x1 = 0.0922 | 0.1965
288.15 K, x1 = 0.1379 | 0.2691
288.15 K, x1 = 0.1833 | 0.3207
288.15 K, x1 = 0.2279 | 0.364
288.15 K, x1 = 0.2717 | 0.3903
288.15 K, x1 = 0.3144 | 0.4302
288.15 K, x1 = 0.356 | 0.446
288.15 K, x1 = 0.3963 | 0.4555
288.15 K, x1 = 0.4494 | 0.4615
288.15 K, x1 = 0.4818 | 0.4632
288.15 K, x1 = 0.5174 | 0.462
288.15 K, x1 = 0.5567 | 0.4548
288.15 K, x1 = 0.6002 | 0.4412
288.15 K, x1 = 0.6486 | 0.4187
288.15 K, x1 = 0.7027 | 0.3879
288.15 K, x1 = 0.7635 | 0.3396
288.15 K, x1 = 0.8322 | 0.2734
288.15 K, x1 = 0.9103 | 0.162
298.15 K, x1 = 0.0464 | 0.121
298.15 K, x1 = 0.0927 | 0.2151
298.15 K, x1 = 0.1386 | 0.2909
298.15 K, x1 = 0.1841 | 0.3511
298.15 K, x1 = 0.2289 | 0.3958
298.15 K, x1 = 0.2728 | 0.4293
298.15 K, x1 = 0.3157 | 0.4534
298.15 K, x1 = 0.3574 | 0.4699
298.15 K, x1 = 0.4188 | 0.4794
298.15 K, x1 = 0.4833 | 0.4821
298.15 K, x1 = 0.5189 | 0.4773
298.15 K, x1 = 0.5582 | 0.4663
298.15 K, x1 = 0.6016 | 0.45
298.15 K, x1 = 0.65 | 0.4302
298.15 K, x1 = 0.7039 | 0.3977
298.15 K, x1 = 0.7645 | 0.3468
298.15 K, x1 = 0.833 | 0.2758
298.15 K, x1 = 0.9108 | 0.1673
313.15 K, x1 = 0.0467 | 0.125
313.15 K, x1 = 0.0933 | 0.2268
313.15 K, x1 = 0.1395 | 0.3064
313.15 K, x1 = 0.1852 | 0.3662
313.15 K, x1 = 0.2302 | 0.4109
313.15 K, x1 = 0.2742 | 0.4455
313.15 K, x1 = 0.3172 | 0.4708
313.15 K, x1 = 0.359 | 0.4897
313.15 K, x1 = 0.4229 | 0.5093
313.15 K, x1 = 0.4526 | 0.5127
313.15 K, x1 = 0.485 | 0.5141
313.15 K, x1 = 0.5207 | 0.5076
313.15 K, x1 = 0.5599 | 0.4957
313.15 K, x1 = 0.6033 | 0.4783
313.15 K, x1 = 0.6516 | 0.4548
313.15 K, x1 = 0.7054 | 0.4202
313.15 K, x1 = 0.7658 | 0.3728
313.15 K, x1 = 0.834 | 0.2966
313.15 K, x1 = 0.9114 | 0.185
323.15 K, x1 = 0.0469 | 0.127
323.15 K, x1 = 0.0937 | 0.233
323.15 K, x1 = 0.1401 | 0.3143
323.15 K, x1 = 0.1859 | 0.3721
323.15 K, x1 = 0.231 | 0.4204
323.15 K, x1 = 0.2752 | 0.4579
323.15 K, x1 = 0.3183 | 0.483
323.15 K, x1 = 0.3601 | 0.5098
323.15 K, x1 = 0.4006 | 0.5244
323.15 K, x1 = 0.4538 | 0.5509
323.15 K, x1 = 0.4863 | 0.5562
323.15 K, x1 = 0.5219 | 0.5504
323.15 K, x1 = 0.5611 | 0.5361
323.15 K, x1 = 0.6045 | 0.5122
323.15 K, x1 = 0.6527 | 0.4897
323.15 K, x1 = 0.7064 | 0.4529
323.15 K, x1 = 0.7667 | 0.4101
323.15 K, x1 = 0.8346 | 0.3351
323.15 K, x1 = 0.9118 | 0.2165
